Reference: publication PMC5514153, “Targeting PTPRZ inhibits stem cell-like properties and tumorigenicity in glioblastoma cells” (Scientific Reports, 2017)

Columns and labels:
hPTPN1 = molecular target: T1, hPTPN1 (Homo sapiens, UniProt P18031); test: In vitro PTPase assay (DiFMUP), PTPN1; format: biochemical; conditions: 60-min preincubation
T1 construct: the catalytic domains of PTPN1 and PTPN6 were expressed as glutathione-S-transferase (GST) fusion proteins; GST (N); made in house; host or cells: Escherichia coli BL21
T1 sequence (P18031 3-277 limits assumed): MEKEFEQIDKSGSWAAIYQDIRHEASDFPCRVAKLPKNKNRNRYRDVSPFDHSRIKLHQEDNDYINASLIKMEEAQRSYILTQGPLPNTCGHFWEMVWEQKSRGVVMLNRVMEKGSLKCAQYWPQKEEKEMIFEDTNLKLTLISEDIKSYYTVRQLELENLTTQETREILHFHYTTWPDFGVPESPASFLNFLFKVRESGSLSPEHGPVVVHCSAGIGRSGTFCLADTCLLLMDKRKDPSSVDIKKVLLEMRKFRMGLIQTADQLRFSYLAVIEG
Method: Figure 4 NAZ2329, an allosteric inhibitor of R5 RPTP subfamily members. (A) Structure of NAZ2329. (B) Effect of preincubation of NAZ2329 on its inhibitory activity against PTPRZ. Recombinant human PTPRZ1 enzyme (the whole intracellular region) was premixed with NAZ2329 for the indicated times and followed by addition of a fluorogenic DiFMUP (non-specific PTP substrate, 6,8-difluoro-4-methylumbiliferyl phosphate) to measure PTP inhibitory activity. (C) Time dependence. The PTPRZ1 enzyme was added to the inhibitor–substrate mixture, and the inhibitory activity was determined at each time point relative to the vehicle control. (D) Reversibility of inhibition. […] The mixture was then 20-fold diluted, and recovered PTP activity was expressed as the relative activity compared with the vehicle-treated enzyme. […] PTPRZ1 enzymes were preincubated with NAZ2329 for 60 min, and the PTP activity was measured using DiFMUP. […]
Recombinant proteins corresponding to the entire intracellular regions (ICRs) of PTPRZ1, PTPRA, and PTPRM were expressed using a baculovirus-silkworm expression system, and purified as described. The ICRs of PTPRG, PTPRS, and PTPRB and the catalytic domains of PTPN1 and PTPN6 were expressed as glutathione-S-transferase (GST) fusion proteins from each pGEX plasmid in Escherichia coli strain BL21 (ref. [6]). […]

human U251 cells = test: Cellular effects in U251 cells; format: cell-based; conditions: proliferation, migration, SOX2 (Supplementary Fig. S4)
Method: This assay was performed as described previously. Briefly, cells were preincubated with compounds for 30 min, and then transferred onto a laminin-coated transwell insert in which the lower chambers contained epidermal growth factor (EGF, #E9644, Sigma-Aldrich). Cells were allowed to migrate for 3 h, and the number of cells that migrated to the lower surface was counted under a conventional fluorescence microscope.
Cells (3 × 10^4 cells) were inoculated into a 24-well plastic tissue culture plate with 500 µl of DMEM supplemented with 2% FBS and the indicated compounds for 48 h. Cells were harvested by trypsinization and then manually counted with a hemacytometer.
Cells were inoculated at 5 × 10^3 cells per 96-well uncoated polystyrene plate (# 9018, Corning) or 5 × 10^4 cells per 35-mm plastic petri dish (#351008, Corning), and cultured in a serum-free medium containing DMEM/F12 with 1x B27 supplement (#17504044, Thermo Fisher Scientific), EGF (20 ng/ml), and basic fibroblast growth factor (bFGF, 20 ng/ml, #064-05381, Wako pure chemical). After a 7-day culture, cells were fixed with 10% neutral formalin and pictured under a conventional microscope. The number of spheroids of approximately 70 µm in diameter were counted manually using Adobe Photoshop CS6 (Adobe).

IC50 (hPTPN1): 14.5 µM
SMILES: CCOc1ccc(C(F)(F)F)cc1CSc1ccsc1C(=O)NS(=O)(=O)c1ccccc1 [NAZ2329]
cellular effects in U251 cells compared with C6 cells (human U251 cells): exerted similar effects
